Consider 24 molecules from patent publication US10173991B2, “Sulfone amide linked benzothiazole inhibitors of endothelial lipase” (BRISTOL-MYERS SQUIBB COMPANY, priority 2014, dated 2019).

Where two headings read alike, the source gives them in different places.

For the experiment, the target named is Endothelial lipase (EL) (Homo sapiens (Human), UniProt Q9Y5X9). Briefly: Endothelial lipase (EL) enzymatic assay with fluorescent substrate A10070 in DMPG vesicles. Type of experiment: biochemical. The method, then: Endothelial lipase (EL) and hepatic lipase (HL) activities were measured using a fluorescent substrate, A10070, (Invitrogen, CA) doped into an artificial vesicle containing DMPG (Avanti Polar Lipids) as the excipient. Vesicles were prepared by combining 571 μL of 29 mM DMPG in a 1:1 mixture of MeOH and CHCl3 with 2000 μL of 1 mM A10070 in a 1:1 mixture of MeOH and CHCl3. The mixture was dried under nitrogen in multiple vials then resuspended in 20 mL total volume of 50 mM HEPES pH 8.0 buffer containing 50 mM NaCl and 0.2 mM EDTA. The sample was allowed to sit at room temperature for 15 min and then was sonicated 3×4 mins on ice with a Branson Sonicator using duty cycle 1. This preparation provides vesicles with a mole fraction of 0.11 for the FRET substrate.
The enzymatic assay was measured using 384-well white Optiplates. Each well contained 20 μL of assay buffer (50 mM HEPES pH 8.0, 50 mM NaCl and 1 mM CaCl2) and 0.25 μL of a DMSO solution containing a compound of interest. EL or HL (10 μL) was added and allowed to incubate with the compound for 30 min at 37° C. The source of EL was conditioned media obtained from HT-1080 cells that were transformed using RAGE technology (Athersys) to overexpress endogenous EL, and HL was partially purified from conditioned media obtained from COS cells overexpressing HL. The reaction was started by the addition of 10 μL of a 1:10 dilution of vesicles. The final total reaction volume was […]. The reaction rates were measured on a Gemini plate reader with an excitation wavelength of 490 nm and an emission wavelength of 530 nm. Readings were taken over a period of 60 minutes, and the slope between 300 and 900 secs of the readout was used to calculate the rate of the reaction.

Chain of Endothelial lipase (EL) (Q9Y5X9 21-500): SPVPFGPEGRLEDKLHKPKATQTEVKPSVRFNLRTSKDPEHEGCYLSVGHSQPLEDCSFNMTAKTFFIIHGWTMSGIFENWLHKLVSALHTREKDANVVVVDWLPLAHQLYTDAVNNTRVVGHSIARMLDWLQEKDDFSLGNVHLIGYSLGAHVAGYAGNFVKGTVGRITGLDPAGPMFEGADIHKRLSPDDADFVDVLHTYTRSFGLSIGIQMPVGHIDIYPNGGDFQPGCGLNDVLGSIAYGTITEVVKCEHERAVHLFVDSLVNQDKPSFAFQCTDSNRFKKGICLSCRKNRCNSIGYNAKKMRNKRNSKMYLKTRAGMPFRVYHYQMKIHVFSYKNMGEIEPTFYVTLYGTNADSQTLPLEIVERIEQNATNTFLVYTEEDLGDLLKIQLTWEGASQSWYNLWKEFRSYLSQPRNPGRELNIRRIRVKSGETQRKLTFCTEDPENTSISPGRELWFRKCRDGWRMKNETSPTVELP

For the molecule `CS(=O)(=O)C(C(=O)NCC(=O)NC1CC1)c1nc2cc(F)c(-c3ccc(NC(=O)OCc4ccccc4)cc3)cc2s1` (stereo not drawn) [Example 1, Benzyl N-{4-[2-({[(cyclopropylcarbamoyl)methyl]carbamoyl}(methanesulfonyl)methyl)-5-fluoro-1,3-benzothiazol-6-yl]phenyl}carbamate], the half-maximal inhibitory concentration (IC50) (EL from conditioned media of HT-1080 cells, 30 min preincubation at 37° C.) is 3 nM.

The molecule `COC(=O)Nc1ccc(-c2cc3sc(C(C(=O)NCC(=O)NC4CC4)S(=O)(=O)CC4CC4)nc3cc2F)cc1` (stereo not drawn) [Example 2, methyl N-{4-[2-({[(cyclopropyl-carbamoyl)methyl]carbamoyl} (cyclopropyl-methanesulfonyl)methyl)-5-fluoro-1,3-benzothiazol-6-yl]phenyl} carbamate] returned an IC50 of 3 nM. That is a single-digit nanomolar value.

`CS(=O)(=O)C(C(=O)NCC(=O)NC1CC1)c1nc2cc(F)c(-c3ccc(NC(N)=O)cc3)cc2s1` (stereo not drawn) [Example 3, 2-{6-[4-(carbamoyl-amino)phenyl]-5-fluoro-1,3-benzothiazol-2-yl}-N-[(cyclopropyl-carbamoyl)methyl]-2-methanesulfonyl-acetamide] came in with an IC50 of 3 nM. This counts as single-digit nanomolar.

Turning to `COCCS(=O)(=O)C(C(=O)NCC(=O)NC1CC1)c1nc2cc(F)c(-c3ccc(NC(N)=O)cc3)cc2s1` (stereo not drawn) [Example 4, 2-{6-[4-(carbamoyl-amino)phenyl]-5-fluoro-1,3-benzothiazol-2-yl}-N-[(cyclopropyl-carbamoyl)methyl]-2-(2-methoxy-ethanesulfonyl) acetamide], inhibition was half-maximal at 9 nM (IC50).

On to `CC(C)S(=O)(=O)C(C(=O)NCC(=O)NC1CC1)c1nc2cc(F)c(-c3ccc(NC(N)=O)cc3)cc2s1` (stereo not drawn) [Example 5, 2-{6-[4-(carbamoyl-amino)phenyl]-5-fluoro-1,3-benzothiazol-2-yl}-N-[(cyclopropyl-carbamoyl)methyl]-2-(propane-2-sulfonyl) acetamide], for which the midpoint of inhibition, the IC50, lay at 9 nM.

Consider `CN(C)C(=O)Nc1ccc(-c2cc3sc(C(C(=O)NCC(=O)NC4CC4)S(=O)(=O)CCC(F)(F)F)nc3cc2F)cc1` (stereo not drawn) [Example 6, N-[(cyclopropyl-carbamoyl)methyl]-2-(6-{4-[(dimethyl-carbamoyl)amino]phenyl}-5-fluoro-1,3-benzothiazol-2-yl)-2-(3,3,3-trifluoropropane-sulfonyl) acetamide], for which the IC50 was determined as 3 nM.

Turning to `NC(=O)Nc1ccc(-c2cc3sc(C(C(=O)NCC(=O)NC4CC4)S(=O)(=O)CCC(F)(F)F)nc3cc2F)cc1` (stereo not drawn) [Example 7, 2-{6-[4-(carbamoyl-amino)phenyl]-5-fluoro-1,3-benzothiazol-2-yl}-N-[(cyclopropyl-carbamoyl)methyl]-2-(3,3,3-trifluoropropane-sulfonyl) acetamide], the IC50 turned out to be 5 nM.

Consider `CS(=O)(=O)C(C(=O)NCC(=O)NC1CC1)c1nc2cc(-c3ccc(NC(=O)OCc4ccccc4)cc3)c(F)cc2s1` (stereo not drawn) [Example 8, benzyl N-{4-[2-({[(cyclopropyl-carbamoyl)methyl]carbamoyl} (methane-sulfonyl)methyl)-6-fluoro-1,3-benzothiazol-5-yl]phenyl} carbamate], for which inhibition was half-maximal at 1 nM (IC50).

Turning to `O=C(CNC(=O)C(c1nc2cc(-c3ccc(NC(=O)OCc4ccccc4)cc3)c(F)cc2s1)S(=O)(=O)CCC(F)(F)F)NC1CC1` (stereo not drawn) [Example 9, benzyl N-{4-[2-({[(cyclopropyl-carbamoyl)methyl]carbamoyl} (3,3,3-trifluoro-propanesulfonyl)methyl)-6-fluoro-1,3-benzothiazol-5-yl]phenyl} carbamate], the IC50 is 1 nM.

Take `COCCS(=O)(=O)C(C(=O)NCC(=O)NC1CC1)c1nc2cc(-c3ccc(NC(=O)OCc4ccccc4)cc3)c(F)cc2s1` (stereo not drawn) [Example 10, benzyl N-{4-[2-({[(cyclopropyl-carbamoyl)methyl]carbamoyl}(2-methoxyethane-sulfonyl)methyl)-6-fluoro-1,3-benzothiazol-5-yl]phenyl} carbamate]: the IC50 stood at 1 nM. That is a single-digit nanomolar value.

The molecule `O=C(CNC(=O)C(c1nc2cc(-c3ccc(NC(=O)OCc4ccccc4)cc3)c(F)cc2s1)S(=O)(=O)C1CC1)NC1CC1` (stereo not drawn) [Example 11, benzyl N-(4-{2-[(cyclopropane-sulfonyl) ({[(cyclopropyl-carbamoyl)methyl]carbamoyl})methyl]6-fluoro-1,3-benzothiazol-5-yl}phenyl) carbamate] registered an IC50 of 1 nM.

In turn, `O=C(CNC(=O)C(c1nc2cc(-c3ccc(F)nc3)ccc2s1)S(=O)(=O)CCC(F)(F)F)NC1CC1` (stereo not drawn) [Example 12, N-[(cyclopropyl-carbamoyl)methyl]-2-[5-(6-fluoropyridin-3-yl)-1,3-benzothiazol-2-yl]-2-(3,3,3-trifluoropropane-sulfonyl) acetamide] returned a 50% inhibitory concentration (IC50) of 7 nM.

Consider `O=C(CNC(=O)C(c1nc2cc(-c3ccc(F)nc3)ccc2s1)S(=O)(=O)Cc1ccc(F)cc1)NC1CC1` (stereo not drawn) [Example 13, N-[(cyclopropyl-carbamoyl)methyl]-2-[(4-fluorophenyl)methanesulfonyl]-2-[5-(6-fluoropyridin-3-yl)-1,3-benzothiazol-2-yl]acetamide], for which half-maximal inhibition (IC50) required 15 nM.

With `O=C(CNC(=O)C(c1nc2cc(-c3ccc(F)nc3)ccc2s1)S(=O)(=O)Cc1ccccc1)NC1CC1` (stereo not drawn) [Example 14, N-[(cyclopropyl-carbamoyl)methyl]-2-[5-(6-fluoropyridin-3-yl)-1,3-benzothiazol-2-yl]-2-phenylmethane-sulfonylacetamide], half-maximal inhibition (IC50) required 23 nM.

The molecule `O=C(CNC(=O)C(c1nc2cc(-c3ccc(F)nc3)ccc2s1)S(=O)(=O)Cc1ccc(F)nc1)NC1CC1` (stereo not drawn) [Example 15, N-[(cyclopropyl-carbamoyl)methyl]-2-[5-(6-fluoropyridin-3-yl)-1,3-benzothiazol-2-yl]-2-[(6-fluoropyridin-3-yl)methanesulfonyl] acetamide] had a half-maximal inhibitory concentration (IC50) of 29 nM.

The molecule `CC(C)S(=O)(=O)C(C(=O)NCC(=O)NC1CC1)c1nc2cc(-c3ccc(F)nc3)ccc2s1` (stereo not drawn) [Example 16, N-[(cyclopropyl-carbamoyl)methyl]-2-[5-(6-fluoropyridin-3-yl)-1,3-benzothiazol-2-yl]-2-(propane-2-sulfonyl) acetamide] yielded an IC50 of 39 nM.

For the molecule `O=C(CNC(=O)C(c1nc2cc(-c3ccc(F)nc3)ccc2s1)S(=O)(=O)Cc1ccc(C(F)(F)F)cc1)NC1CC1` (stereo not drawn) [Example 17, N-[(cyclopropyl-carbamoyl)methyl]-2-[5-(6-fluoropyridin-3-yl)-1,3-benzothiazol-2-yl]-2-{[4-(trifluoromethyl)phenyl]methanesulfonyl} acetamide], the IC50 was determined as 46 nM.

`O=C(CNC(=O)C(c1nc2ccc(-c3ccc(F)nc3)cc2s1)S(=O)(=O)Cc1ccccc1F)NC1CC1` (stereo not drawn) [Example 18, N-[(cyclopropyl-carbamoyl)methyl]-2-[(2-fluorophenyl)methanesulfonyl]-2-[6-(6-fluoropyridin-3-yl)-1,3-benzothiazol-2-yl]acetamide] yielded an IC50 of 253 nM.

For `COc1ccc(OCCCS(=O)(=O)C(C(=O)NCC(=O)NC2CC2)c2nc3ccc(-c4ccc(F)nc4)cc3s2)cc1` (stereo not drawn) [Example 19, N-[(cyclopropyl-carbamoyl)methyl]-2-[6-(6-fluoropyridin-3-yl)-1,3-benzothiazol-2-yl]-2-[3-(4-methoxyphenoxy)propanesulfonyl] acetamide], the midpoint of inhibition, the IC50, lay at 7 nM.

`N#Cc1cccc(CS(=O)(=O)C(C(=O)NCC(=O)NC2CC2)c2nc3ccc(-c4ccc(F)nc4)cc3s2)c1` (stereo not drawn) [Example 20, 2-[(3-cyanophenyl)methanesulfonyl]-N-[(cyclopropyl-carbamoyl)methyl]-2-[6-(6-fluoropyridin-3-yl)-1,3-benzothiazol-2-yl]acetamide] had an IC50 of 46 nM.

`Cc1ncc(-c2ccc3nc(C(C(=O)NCC(=O)NC4CC4)S(=O)(=O)Cc4cccc(C#N)c4)sc3c2)cn1` (stereo not drawn) [Example 21, 2-[(3-cyanophenyl)methanesulfonyl]-N-[(cyclopropyl-carbamoyl)methyl]-2-[6-(2-methylpyrimidin-5-yl)-1,3-benzothiazol-2-yl]acetamide] gave a half-maximal inhibitory concentration (IC50) of 145 nM.

Take `CC(C)n1cc(-c2cc3sc(C(C(=O)NCC(=O)NC4CC4)S(=O)(=O)C(C)C)nc3cc2F)ccc1=O` (stereo not drawn) [Example 22, N-[(cyclopropyl-carbamoyl)methyl]-2-{5-fluoro-6-[6-oxo-1-(propan-2-yl)-1,6-dihydropyridin-3-yl]-1,3-benzothiazol-2-yl}-2-(propane-2-sulfonyl) acetamide]: the 50% inhibitory concentration (IC50) came out at 37 nM.

As to `COC(=O)N(C)c1ccc(-c2ccc3nc(C(C(=O)NCC(=O)NC4CC4)S(C)(=O)=O)sc3c2)cc1` (stereo not drawn) [Example 23, methyl N-{4-[2-({[(cyclopropyl-carbamoyl)methyl]carbamoyl} (methanesulfonyl)methyl)-1,3-benzothiazol-6-yl]phenyl}-N-methylcarbamate], 14 nM corresponded to half-maximal inhibition (IC50).

Consider `COC(=O)N(C)c1ccc(-c2ccc3nc(C(C(=O)NCC(=O)NC4CC4)S(=O)(=O)CCC(F)(F)F)sc3c2)cc1` (stereo not drawn) [Example 24, methyl N-{4-[2-({[(cyclopropyl-carbamoyl)methyl]carbamoyl} (3,3,3-trifluoropropane-sulfonyl)methyl)-1,3-benzothiazol-6-yl]phenyl}-N-methylcarbamate], for which the IC50 is 6 nM.
